Data as given in patent US20250145665A1, “MACROCYCLIC PEPTIDES USEFUL AS MODULATORS OF TNF ALPHA” (Bristol-Myers Squibb Company, priority 2023, published 2025).
Positions of bridges follow the written chain, without caps; N, C: chain ends. Non-standard residues stand in square brackets, D forms with d. Residues, ends and D or L forms follow the SMILES beside them. ξ: configuration not given here. Bip = N[C@@H](Cc1ccc(-c2ccccc2)cc1)C(=O)O; hhPhe = N[C@@H](CCCc1ccccc1)C(=O)O; h4Pal = N[C@@H](CCc1ccncc1)C(=O)O; 4Pal = N[C@@H](Cc1ccncc1)C(=O)O; ξIle = CC[C@H](C)C(N)C(=O)O; Orn = NCCC[C@H](N)C(=O)O; Sar = CNCC(=O)O

Molecular target: TNFα (Homo sapiens, UniProt P01375)
Assay: TNF-Induced HEK-Blue Assay
Type: cell-based
Conditions: HEK-Blue-CD40L cells, NF-kB-driven secreted alkaline phosphatase reporter; TNFα 0.5 ng/ml; 18 h; read-out: TNF induced HEK-Blue assay IC50 value

Chain of TNFα (P01375 77-233 limits assumed): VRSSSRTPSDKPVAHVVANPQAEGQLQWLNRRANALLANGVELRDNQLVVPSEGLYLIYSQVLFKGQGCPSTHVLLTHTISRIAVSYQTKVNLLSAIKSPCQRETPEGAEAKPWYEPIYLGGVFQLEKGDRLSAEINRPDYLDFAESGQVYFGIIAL

`CC(C)C[C@@H]1NC(=O)[C@H](CCCNC(=N)N)NC(=O)[C@H](C(C)C)NC(=O)[C@@H]2CCCN2C(=O)[C@H](C(C)C)NC(=O)[C@H](CCCNC(=N)N)NC(=O)[C@H](CC(=O)O)NC(=O)[C@@H]2CCCN2C(=O)CN(C)C(=O)[C@H](Cc2ccc(-c3ccccc3)cc2)NC(=O)[C@H](Cc2ccc(-c3ccccc3)cc2)NC(=O)[C@H](Cc2ccccc2)NC(=O)CSC[C@@H](C(=O)NCC(N)=O)NC1=O` [Example 1] ({CH2CO}-F[Bip][Bip][Sar]PDRVPVRLCG-NH2; thioether N-13) was tested, and the IC50 was 0.2 to 2 µM.

In the case of `CC(C)C[C@@H]1NC(=O)[C@H](CCCN)NC(=O)[C@H](C(C)C)NC(=O)[C@@H]2CCCN2C(=O)[C@H](C(C)C)NC(=O)[C@H](CCCNC(=N)N)NC(=O)[C@H](CC(=O)O)NC(=O)[C@@H]2CCCN2C(=O)CN(C)C(=O)[C@H](Cc2ccc(-c3ccccc3)cc2)NC(=O)[C@H](Cc2ccc(-c3ccccc3)cc2)NC(=O)[C@H](Cc2ccccc2)NC(=O)CSC[C@@H](C(=O)NCC(N)=O)NC1=O` [Example 2] ({CH2CO}-F[Bip][Bip][Sar]PDRVPV[Orn]LCG-NH2; thioether N-13), the IC50 is reported as 0.2 to 2 µM.

Work on `CC(C)C[C@@H]1NC(=O)[C@H](CCCCN)NC(=O)[C@H](C(C)C)NC(=O)[C@@H]2CCCN2C(=O)[C@H](C(C)C)NC(=O)[C@H](CCCNC(=N)N)NC(=O)[C@H](CC(=O)O)NC(=O)[C@@H]2CCCN2C(=O)CN(C)C(=O)[C@H](Cc2ccc(-c3ccccc3)cc2)NC(=O)[C@H](Cc2ccc(-c3ccccc3)cc2)NC(=O)[C@H](Cc2ccccc2)NC(=O)CSC[C@@H](C(=O)NCC(N)=O)NC1=O` [Example 3] ({CH2CO}-F[Bip][Bip][Sar]PDRVPVKLCG-NH2; thioether N-13) yielded an IC50 of 0.2 to 2 µM.

For `CC(C)C[C@@H]1NC(=O)[C@H](CCCNC(=N)N)NC(=O)[C@H](C(C)C)NC(=O)[C@@H]2CCCN2C(=O)[C@H](C(C)C)NC(=O)[C@H](CCCNC(=N)N)NC(=O)[C@H](CC(=O)O)NC(=O)[C@@H]2CCCN2C(=O)CN(C)C(=O)[C@H](Cc2ccc(-c3ccccc3)cc2)NC(=O)[C@H](Cc2ccc(-c3ccccc3)cc2)NC(=O)[C@H](Cc2ccc(O)cc2)NC(=O)CSC[C@@H](C(=O)NCC(N)=O)NC1=O` [Example 4] ({CH2CO}-Y[Bip][Bip][Sar]PDRVPVRLCG-NH2; thioether N-13), the IC50 was 0.2 to 2 µM.

`CC(C)C[C@@H]1NC(=O)[C@H](CCCNC(=N)N)NC(=O)[C@H](C(C)C)NC(=O)[C@@H]2CCCN2C(=O)[C@H](C(C)C)NC(=O)[C@H](CCCNC(=N)N)NC(=O)[C@H](CC(=O)O)NC(=O)[C@@H]2CCCN2C(=O)CN(C)C(=O)[C@H](Cc2ccc(-c3ccccc3)cc2)NC(=O)[C@H](Cc2ccc(-c3ccccc3)cc2)NC(=O)[C@H](Cc2c[nH]c3ccccc23)NC(=O)CSC[C@@H](C(=O)NCC(N)=O)NC1=O` [Example 5] ({CH2CO}-W[Bip][Bip][Sar]PDRVPVRLCG-NH2; thioether N-13) gave an IC50 of 0.2 to 2 µM.

`CC(C)C[C@@H]1NC(=O)[C@H](CCCNC(=N)N)NC(=O)[C@H](C(C)C)NC(=O)[C@@H]2CCCN2C(=O)[C@H](C(C)C)NC(=O)[C@H](CCCNC(=N)N)NC(=O)[C@H](CC(=O)O)NC(=O)[C@@H]2CCCN2C(=O)CN(C)C(=O)[C@H](Cc2ccc(-c3ccccc3)cc2)NC(=O)[C@H](Cc2ccc(-c3ccccc3)cc2)NC(=O)[C@H](CCCCN)NC(=O)CSC[C@@H](C(=O)NCC(N)=O)NC1=O` [Example 6] ({CH2CO}-K[Bip][Bip][Sar]PDRVPVRLCG-NH2; thioether N-13) showed an IC50 of 0.2 to 2 µM.

With `CC[C@H](C)C1NC(=O)CSC[C@@H](C(=O)NCC(N)=O)NC(=O)[C@H](CC(C)C)NC(=O)[C@H](CCCNC(=N)N)NC(=O)[C@H](C(C)C)NC(=O)[C@@H]2CCCN2C(=O)[C@H](C(C)C)NC(=O)[C@H](CCCNC(=N)N)NC(=O)[C@H](CC(=O)O)NC(=O)[C@@H]2CCCN2C(=O)CN(C)C(=O)[C@H](Cc2ccc(-c3ccccc3)cc2)NC(=O)[C@H](Cc2ccc(-c3ccccc3)cc2)NC1=O` (stereo partly shown) [Example 7] ({CH2CO}-[ξIle][Bip][Bip][Sar]PDRVPVRLCG-NH2; thioether N-13) the IC50 was 0.2 to 2 µM.

`CC(C)C[C@@H]1NC(=O)CSC[C@@H](C(=O)NCC(N)=O)NC(=O)[C@H](CC(C)C)NC(=O)[C@H](CCCNC(=N)N)NC(=O)[C@H](C(C)C)NC(=O)[C@@H]2CCCN2C(=O)[C@H](C(C)C)NC(=O)[C@H](CCCNC(=N)N)NC(=O)[C@H](CC(=O)O)NC(=O)[C@@H]2CCCN2C(=O)CN(C)C(=O)[C@H](Cc2ccc(-c3ccccc3)cc2)NC(=O)[C@H](Cc2ccc(-c3ccccc3)cc2)NC1=O` [Example 8] ({CH2CO}-L[Bip][Bip][Sar]PDRVPVRLCG-NH2; thioether N-13) was tested, and the IC50 was 0.2 to 2 µM.

`CC(C)C[C@@H]1NC(=O)[C@H](CCCNC(=N)N)NC(=O)[C@H](C(C)C)NC(=O)[C@@H]2CCCN2C(=O)[C@H](C(C)C)NC(=O)[C@H](CCCNC(=N)N)NC(=O)[C@H](CC(=O)O)NC(=O)[C@@H]2CCCN2C(=O)CN(C)C(=O)[C@H](Cc2ccc(-c3ccccc3)cc2)NC(=O)[C@H](Cc2ccc(-c3ccccc3)cc2)NC(=O)[C@H](C(C)C)NC(=O)CSC[C@@H](C(=O)NCC(N)=O)NC1=O` [Example 9] ({CH2CO}-V[Bip][Bip][Sar]PDRVPVRLCG-NH2; thioether N-13) gave an IC50 of 0.2 to 2 µM.

For `CC(C)C[C@@H]1NC(=O)[C@H](CCCNC(=N)N)NC(=O)[C@H](C(C)C)NC(=O)[C@@H]2CCCN2C(=O)[C@H](C(C)C)NC(=O)[C@H](CCCNC(=N)N)NC(=O)[C@H](CC(=O)O)NC(=O)[C@@H]2CCCN2C(=O)CN(C)C(=O)[C@H](Cc2ccc(-c3ccccc3)cc2)NC(=O)[C@H](Cc2ccc(-c3ccccc3)cc2)NC(=O)[C@H](CCc2ccncc2)NC(=O)CSC[C@@H](C(=O)NCC(N)=O)NC1=O` [Example 10] ({CH2CO}-[h4Pal][Bip][Bip][Sar]PDRVPVRLCG-NH2; thioether N-13), the IC50 was 0.2 to 2 µM.

Molecule `CC(C)C[C@@H]1NC(=O)[C@H](CCCNC(=N)N)NC(=O)[C@H](C(C)C)NC(=O)[C@@H]2CCCN2C(=O)[C@H](C(C)C)NC(=O)[C@H](CCCNC(=N)N)NC(=O)[C@H](CC(=O)O)NC(=O)[C@@H]2CCCN2C(=O)CN(C)C(=O)[C@H](Cc2ccc(-c3ccccc3)cc2)NC(=O)[C@H](Cc2ccc(-c3ccccc3)cc2)NC(=O)[C@H](Cc2ccncc2)NC(=O)CSC[C@@H](C(=O)NCC(N)=O)NC1=O` [Example 11] ({CH2CO}-[4Pal][Bip][Bip][Sar]PDRVPVRLCG-NH2; thioether N-13) has an IC50 of 0.2 to 2 µM.

Work on `CC(C)C[C@@H]1NC(=O)[C@H](CCCNC(=N)N)NC(=O)[C@H](C(C)C)NC(=O)[C@@H]2CCCN2C(=O)[C@H](C(C)C)NC(=O)[C@H](CCCNC(=N)N)NC(=O)[C@H](CC(=O)O)NC(=O)[C@@H]2CCCN2C(=O)CN(C)C(=O)[C@H](Cc2ccc(-c3ccccc3)cc2)NC(=O)[C@H](Cc2ccc(-c3ccccc3)cc2)NC(=O)[C@H](CCCc2ccccc2)NC(=O)CSC[C@@H](C(=O)NCC(N)=O)NC1=O` [Example 12] ({CH2CO}-[hhPhe][Bip][Bip][Sar]PDRVPVRLCG-NH2; thioether N-13) yielded an IC50 of 0.2 to 2 µM.

Molecule `CC(C)C[C@@H]1NC(=O)[C@H](CCCNC(=N)N)NC(=O)[C@H](C(C)C)NC(=O)[C@@H]2CCCN2C(=O)[C@H](Cc2ccc(O)cc2)NC(=O)[C@H](CCCNC(=N)N)NC(=O)[C@H](CC(=O)O)NC(=O)[C@@H]2CCCN2C(=O)CN(C)C(=O)[C@H](Cc2ccc(-c3ccccc3)cc2)NC(=O)[C@H](Cc2ccc(-c3ccccc3)cc2)NC(=O)[C@H](Cc2ccccc2)NC(=O)CSC[C@@H](C(=O)NCC(N)=O)NC1=O` [Example 15] ({CH2CO}-F[Bip][Bip][Sar]PDRYPVRLCG-NH2; thioether N-13) has an IC50 of 0.2 to 2 µM.
